Earlier results in patent US20230027739A1, “ANTIGEN-BINDING AND ANTIGEN D[…]” (Entrada Therapeutics, Inc., priority 2021, published 2023).

Experiments:
[1] = for Amino Acid Hydrophobicity, Eisenberg and Weiss: hydrophobicity scale of Eisenberg and Weiss; for Amino Acid Hydrophobicity, Engleman et al.: hydrophobicity scale of Engleman et al.; for Amino Acid Hydrophobicity, Hoop and Woods: hydrophobicity scale of Hoop and Woods; for Amino Acid Hydrophobicity, Janin: hydrophobicity scale of Janin; for Amino Acid Hydrophobicity, Kyrie and Doolittle: hydrophobicity scale of Kyrie and Doolittle
[2] = for Amino Acid SASA Values, Theoretical: theoretical values as reported by Tien, et al.

SMILES	Amino Acid Hydrophobicity, Eisenberg and Weiss [1]	Amino Acid Hydrophobicity, Engleman et al. [1]	Amino Acid Hydrophobicity, Hoop and Woods [1]	Amino Acid Hydrophobicity, Janin [1]	Amino Acid Hydrophobicity, Kyrie and Doolittle [1]	Amino Acid SASA Values, Miller et al. (1987) [2] [Å^2]	Amino Acid SASA Values, Rose et al. (1985) [2] [Å^2]	Amino Acid SASA Values, Empirical [2] [Å^2]	Amino Acid SASA Values, Theoretical [2] [Å^2]
C[C@H](N)C(=O)O [Ala]	0.25	1.6	−0.5	0.3	1.8				
C[C@H](N)C(=O)O [Alanine]						113.0	118.1	121.0	129.0
N=C(N)NCCC[C@H](N)C(=O)O [Arg]	−1.80	−12.3	3.0	−1.4	−4.5				
N=C(N)NCCC[C@H](N)C(=O)O [Arginine]						241.0	256.0	265.0	274.0
NC(=O)C[C@H](N)C(=O)O [Asn]	−0.64	−4.8	0.2	−0.5	−3.5				
N[C@@H](CC(=O)O)C(=O)O [Asp]	−0.72	−9.2	3.0	−0.6	−3.5				
NC(=O)C[C@H](N)C(=O)O [Asparagine]						158.0	165.5	187.0	195.0
N[C@@H](CC(=O)O)C(=O)O [Aspartate]						151.0	158.7	187.0	193.0
N[C@@H](CS)C(=O)O [Cys]	0.04	2.0	−1.0	0.9	2.5				
N[C@@H](CS)C(=O)O [Cysteine]						140.0	146.1	148.0	167.0
N[C@@H](CCC(=O)O)C(=O)O [Glu]	−0.62	−8.2	3.0	−0.7	−3.5				
N[C@@H](CCC(=O)O)C(=O)O [Glutamate]						183.0	186.2	214.0	
NCC(=O)O [Glycine]						85.0	88.1	97.0	104.0
N[C@@H](Cc1c[nH]cn1)C(=O)O [His]	−0.40	−3.0	−0.5	−0.1	−3.2				
N[C@@H](Cc1c[nH]cn1)C(=O)O [Histidine]						194.0	202.5	216.0	224.0
CC[C@H](C)[C@H](N)C(=O)O [Isoleucine]						182.0	181.0	195.0	197.0
NCCCC[C@H](N)C(=O)O [Lys]	−1.10	−8.8	3.0	−1.8	−3.9				

SMILES	Amino Acid Hydrophobicity, Eisenberg and Weiss [1]	Amino Acid Hydrophobicity, Engleman et al. [1]	Amino Acid Hydrophobicity, Hoop and Woods [1]	Amino Acid Hydrophobicity, Janin [1]	Amino Acid Hydrophobicity, Kyrie and Doolittle [1]	Amino Acid SASA Values, Miller et al. (1987) [2] [Å^2]	Amino Acid SASA Values, Rose et al. (1985) [2] [Å^2]	Amino Acid SASA Values, Empirical [2] [Å^2]	Amino Acid SASA Values, Theoretical [2] [Å^2]
NCCCC[C@H](N)C(=O)O [Lysine]						211.0	225.8	230.0	236.0
CSCC[C@H](N)C(=O)O [Met]	0.26	3.4	−1.3	0.4	1.9				
CSCC[C@H](N)C(=O)O [Methionine]						204.0	203.4	203.0	224.0
N[C@@H](Cc1ccccc1)C(=O)O [Phe]	0.61	3.7	−2.5	0.5	2.8				
N[C@@H](Cc1ccccc1)C(=O)O [Phenylalanine]						218.0	222.8	228.0	240.0
O=C(O)[C@@H]1CCCN1 [Proline]						143.0	146.8	154.0	
N[C@@H](CO)C(=O)O [Ser]	−0.26	0.6	0.3	−0.1	−0.8				
N[C@@H](CO)C(=O)O [Serine]						122.0	129.8	143.0	155.0
C[C@@H](O)[C@H](N)C(=O)O [Thr]	−0.18	1.2	−0.4	−0.2	−0.7				
C[C@@H](O)[C@H](N)C(=O)O [Threonine]						146.0	152.5	163.0	172.0
N[C@@H](Cc1c[nH]c2ccccc12)C(=O)O [Trp]	0.37	1.9	−3.4	0.3	−0.9				
N[C@@H](Cc1c[nH]c2ccccc12)C(=O)O [Tryptophan]						259.0	266.3	264.0	285.0
N[C@@H](Cc1ccc(O)cc1)C(=O)O [Tyr]	0.02	−0.7	−2.3	−0.4	−1.3				
N[C@@H](Cc1ccc(O)cc1)C(=O)O [Tyrosine]						229.0	236.8	255.0	263.0
CC(C)[C@H](N)C(=O)O [Val]	0.54	2.6	−1.5	0.6	4.2				
CC(C)[C@H](N)C(=O)O [Valine]						160.0	164.5	165.0	174.0
